Laboratory results published in patent publication US9499493B2, “2,4-pyrimidinediamine compounds and their uses” (Rigel Pharmaceuticals, Inc., priority 2002, dated 2016).
pIC50: −log10 of the molar value.

These compounds were tested on cultured human mast cells (CHMC) (assay: CHMC low cell density IgE activation: tryptase assay). Details: Homo sapiens, Mast cell, anti-IgE.
Format: cell-based
Protocol: Pellet CHMC cells (980 rpm, 10 min) and resuspend in pre-warmed MT. Add 65 ul of cells to each 96-well plate. Depending on the degranulation activity for each particular CHMC donor, load 1000-1500 cells/well. Mix four times followed by a 1 hr incubation at 37° C. […] Stimulate cells by adding 25 ul of 6× anti-IgE solution to the appropriate plates. Add 25 ul MT to un-stimulated control wells. Mix twice following addition of the anti-IgE. Incubate at 37° C. for 30 minutes. […] Spin plates at 1000 rpm for 10 min to pellet cells. Transfer 25 ul of supernatant to a 96-well black bottom plate and add 100 ul of freshly diluted tryptase substrate solution to each well. Incubate plates at room temperature for 30 min.
With `O=C(O)Cc1cccc(Nc2ncc(F)c(Nc3cccc(CC(=O)O)c3)n2)c1` [R935117] the pIC50 was under 5.00.

Same assay, conditions: anti-IgE
`COC(=O)C1Cc2cc(Nc3ncc(F)c(Nc4ccc(OCCO)nc4)n3)ccc2O1` (racemic) [R927025, (±)-N2-(2,3-Dihydro-2-methoxycarbonylbenzofuran-5-yl)-5-fluoro-N4-[2-(2-hydroxyethyleneoxy)pyridin-5-yl]-5-fluoro-2,4-pyrimidinediamine] was tested, and the pIC50 was 6.49.
`Fc1cnc(Cl)nc1Nc1ccc(Cl)nc1` [Compound R920400] was tested, and the pIC50 was under 5.00.
For `Cc1ccnc(Nc2nc(Cl)ncc2F)c1` [Compound R920401], the pIC50 was under 5.00.
`Fc1cnc(Cl)nc1Nc1cccc(OC(F)(F)F)c1` [Compound R920402] showed a pIC50 of under 5.00.
In the case of `Fc1cnc(Cl)nc1Nc1ccc2c(c1)OC(F)(F)O2` [Compound R920403], the pIC50 was under 5.00.
Compound `Fc1cnc(Cl)nc1Nc1ccc2ncccc2c1` [Compound R920409] has a pIC50 of under 5.00.
Work on `CCOC(=O)C=C1NN=C(c2cccc(Nc3nc(Cl)ncc3F)c2)O1` [Compound R926873] yielded a pIC50 of under 5.00.
In the case of `Fc1cnc(Cl)nc1Nc1ccc(OC(F)(F)F)cc1` [Compound R926875], the pIC50 was under 5.00.
Compound `Fc1cnc(Cl)nc1Nc1ccc(C(F)(F)F)cc1` [Compound R926876] has a pIC50 of under 5.00.
For `Fc1cnc(Cl)nc1Nc1ccc(Cl)c(C(F)(F)F)c1` [Compound R926877], the pIC50 was under 5.00.
In the case of `COc1ccc(Nc2nc(Cl)ncc2F)cn1` [Compound R926878], the pIC50 was under 5.00.
For `Fc1ccc(Nc2nc(Cl)ncc2F)cc1F` [Compound R926882], the pIC50 was under 5.00.
`Fc1cnc(Cl)nc1Nc1ccc(Cl)c(Cl)c1` [Compound R926884] gave a pIC50 of under 5.00.
`Cc1cccc(Nc2nc(Cl)ncc2F)n1` [Compound R926888] showed a pIC50 of under 5.00.
`Fc1cnc(Cl)nc1Nc1ccc2cn[nH]c2c1` [Compound R935260] was tested, and the pIC50 was under 5.00.
For `Fc1cnc(Cl)nc1Nn1cccc1` [Compound R935275], the pIC50 was under 5.00.
For `COc1ccc(Nc2nc(Cl)ncc2F)cc1CN1CCOCC1` [Compound R940313], the pIC50 was under 5.00.
`CC1(C)CN(c2cccc[n+]2[O-])c2cc(Nc3nc(Cl)ncc3F)ccc2O1` [Compound R940328] was tested, and the pIC50 was under 5.00.
`CC1(C)CN(c2ccccn2)c2cc(Nc3nc(Cl)ncc3F)ccc2O1` [Compound R940336] was tested, and the pIC50 was under 5.00.
For `CC1(C)Oc2cc(Nc3nc(Cl)ncc3F)cnc2NC1=O` [Compound R940344], the pIC50 was under 5.00.
`CN(C)C(=O)COc1cccc(Nc2ncc(F)c(Nc3ccc4c(c3)NCCO4)n2)c1` [R909290, N2-[3-(N,N-Dimethylaminocarbonylmethyleneoxy)phenyl]-N4-(1,4-benzoxazin-6-yl)-5-fluoro-2,4-pyrimidinediamine] showed a pIC50 of 6.65.
`CNC(=O)COc1cccc(Nc2ncc(F)c(Nc3ccc4c(c3)N(C(=N)N)CCO4)n2)c1` [R909292, N4-(4N-Carboxamidino-1,4-benzoxazin-6-yl)-5-fluoro-N2-[3-(N-methylamino)carbonylmethyleneoxyphenyl]-2,4-pyrimidinediamine] gave a pIC50 of 5.93.
`C[C@H](Nc1ncc(F)c(N[C@@H](C)[C@H](O)c2ccccc2)n1)[C@H](O)c1ccccc1` [R925767, N2,N4-Bis[(2R)-hydroxy-(1S)-methyl-2-phenylethyl]-5-fluoro-2,4-pyrimidinediamine] showed a pIC50 of 5.00.
For `Fc1cnc(NCc2ccc3c(c2)OCO3)nc1NCc1ccc2c(c1)OCO2` [R925770, N2,N4-Bis(piperonyl)-5-fluoro-2,4-pyrimidineamine], the pIC50 was under 5.00.
For `Oc1cccc(Nc2ncc(F)c(Nc3ccc4c(c3)OCCO4)n2)c1` [R926210, N4-(3,4-Ethylenedioxyphenyl)-5-fluoro-N2-(3-hydroxyphenyl)-2,4-pyrimidinediamine], the pIC50 was 6.03.
Work on `O=C(O)COc1ccc(Nc2ncc(F)c(Nc3ccc4c(c3)OCCO4)n2)cc1` [R926238, N2-(4-Carboxymethyleneoxyphenyl)-N4-(3,4-ethylenedioxyphenyl)-5-fluoro-2,4-pyrimidinediamine] yielded a pIC50 of under 5.00.
With `Cc1cc(Nc2ncc(F)c(Nc3ccc(O)c(C)c3)n2)ccc1O` [R926469, N2,N4′-Bis(4-hydroxy-3-methylphenyl)-5-fluoro-2,4-pyrimidinediamine] the pIC50 was under 5.00.
Compound `O=C(O)COc1cccc(Nc2ncc(F)c(Nc3ccc4c(c3)OCCO4)n2)c1` [R926483, N2-(3-Carboxymethyleneoxyphenyl)-N4-(3,4-ethylenedioxyphenyl)-5-fluoro-2,4-pyrimidinediamine] has a pIC50 of under 5.00.
Work on `Oc1cccc(Nc2nc(Nc3ccc4oc(CN5CCNCC5)cc4c3)ncc2F)c1` [R926770, 5-Fluoro-N4-(3-hydroxyphenyl)-N2-[2-(N-piperazinomethylene)benzofuran-5-yl]-2,4-pyrimidinediamine] yielded a pIC50 of 6.23.
`O=C(COc1cccc(Nc2ncc(F)c(Nc3cccc(O)c3)n2)c1)N1CCNCC1` [R926772, 5-Fluoro-N4-(3-hydroxyphenyl)-N2-[3-(N-piperazino)carbonylmethyleneoxyphenyl]-2,4-pyrimidinediamine] showed a pIC50 of 6.47.
With `CNC(=O)COc1cccc(Nc2ncc(F)c(Nc3ccc(C#N)c(C)c3)n2)c1` [R926851, N4-(4-Cyano-3-methylphenyl)-5-fluoro-N2-[3-(N-methylamino)carbonylmethyleneoxyphenyl]-2,4-pyrimidinediamine] the pIC50 was 6.35.
For `COc1cc(Nc2nc(Nc3cccc(O)c3)ncc2F)c(OC)cc1Cl` [R926860, N4-(4-Chloro-2,5-dimethoxyphenyl)-5-fluoro-N2-(3-hydroxyphenyl)-2,4-primidinediamine], the pIC50 was 5.71.
In the case of `CNC(=O)COc1cccc(Nc2ncc(F)c(Nc3cccc(-c4nnc(-c5ccccc5)o4)c3)n2)c1` [R926870, 5-Fluoro-N2-[3-(N-methylamino)carbonylmethyleneoxyphenyl]-N4-[3-(2-phenyl-1,3,4-oxadiazol-5-yl)phenyl]-2,4-pyrimidinediamine], the pIC50 was 5.48.
`CNC(=O)COc1cccc(Nc2ncc(F)c(Nc3cccc(-c4nnc(-c5cccc(Cl)c5)o4)c3)n2)c1` [R926871, N4-[3-(2-(3-Chlorophenyl)-1,3,4-oxadiazol-5-yl)phenyl]-5-fluoro-N2-[3-(N-methylamino)carbonylmethyleneoxyphenyl]-2,4-pyrimidinediamine] gave a pIC50 of 5.67.
`CNC(=O)COc1cccc(Nc2ncc(F)c(Nc3ccc4cc(C(=O)OC)[nH]c4c3)n2)c1` [R926904, 5-Fluoro-N2-[3-[(N-methylamino)carbonylmethyleneoxy]phenyl]-N4-[2-(methoxycarbonyl)-(1H)-indol-6-yl]-2,4-pyrimidinediamine] showed a pIC50 of 6.27.
`CCOC(=O)C(C)(C)Oc1cccc(Nc2ncc(F)c(Nc3cccc(O)c3)n2)c1` [R926906, N2-[3-(Ethoxycarbonyl-1,1-dimethylmethyleneoxy)phenyl]-5-fluoro-N4-(3-hydroxyphenyl)-2,4-pyrimidinediamine] gave a pIC50 of 6.10.
Compound `CCOC(=O)C(C)(C)Oc1cccc(Nc2ncc(F)c(Nc3ccc4c(c3)OCCO4)n2)c1` [R926907, N2-[3-(Ethoxycarbonyl-1,1-dimethylmethyleneoxy)phenyl]-N4-(3,4-ethylenedioxyphenyl)-5-fluoro-2,4-pyrimidinediamine] has a pIC50 of 6.12.
In the case of `CCOC(=O)C(C)(C)Oc1cccc(Nc2ncc(F)c(Nc3ccc(C)c(O)c3)n2)c1` [R926908, N2-[3-(Ethoxycarbonyl-1,1-dimethylmethyleneoxy)phenyl]-5-fluoro-N4-(3-hydroxy-4-methylphenyl)-2,4-pyrimidinediamine], the pIC50 was 6.23.
Work on `CCOC(=O)C(C)(C)Oc1cccc(Nc2ncc(F)c(Nc3ccc4cc[nH]c4c3)n2)c1` [R926909, N2-[3-(Ethoxycarbonyl-1,1-dimethylmethyleneoxy)phenyl]-5-fluoro-N4-[(1H)-indol-6-yl]-2,4-pyrimidinediamine] yielded a pIC50 of 6.42.
In the case of `CNC(=O)COc1cccc(Nc2ncc(F)c(Nc3cccc(SC(F)(F)F)c3)n2)c1` [R926925, 5-Fluoro-N2-[3-[(N-methylamino)carbonylmethyleneoxy]phenyl]-N4-(3-trifluoromethylthiophenyl)-2,4-pyrimidinediamine], the pIC50 was 6.51.
Compound `CCOC(=O)C1CCN(C(=O)c2cccc(Nc3nc(Nc4cccc(OCC(=O)NC)c4)ncc3F)c2)CC1` [R926941, N4-[3-[[4-(Ethoxycarbonyl)piperidino]carbonyl]phenyl]-5-fluoro-N2-[3-[(N-methylamino)carbonylmethyleneoxy]phenyl]-2,4-pyrimidinediamine] has a pIC50 of 5.38.
Compound `CC(C)(CO)c1ccc(Nc2ncc(F)c(Nc3cccc(O)c3)n2)cc1` [R935153, 5-Fluoro-N2-[4-(2-hydroxy-1,1-dimethylethyl)phenyl]-N4-(3-hydroxyphenyl)-2,4-pyrimidinediamine] has a pIC50 of 6.62.
Work on `CC(C)Oc1ccc(Nc2ncc(F)c(Nc3ccc4[nH]ncc4c3)n2)cc1` [R935266, 5-Fluoro-N4-(indazoline-5-yl)-N2-(4-isopropoxyphenyl)-2,4-pyrimidinediamine] yielded a pIC50 of 5.53.
`Fc1cnc(Nc2ccc3c(c2)OCCO3)nc1Nc1ccc2[nH]ncc2c1` [R935267, N2-(3,4-Ethyelenedioxyphenyl)-5-fluoro-N4-(indazoline-5-yl)-2,4-pyrimidinediamine] was tested, and the pIC50 was 5.61.
`Oc1cccc(Nc2ncc(F)c(Nc3ccc4[nH]ncc4c3)n2)c1` [R935268, 5-Fluoro-N2-(3-hydroxyphenyl)-N4-(indazoline-5-yl)-2,4-pyrimidinediamine] was tested, and the pIC50 was 5.98.
With `COC(=O)COc1cccc(Nc2ncc(F)c(Nc3ccc4[nH]ncc4c3)n2)c1` [R935269, 5-Fluoro-N4-(indazoline-5-yl)-N2-[3-(methoxycarbonylmethyleneoxy)phenyl]-2,4-pyrimidinediamine] the pIC50 was 5.77.
`CC(C)Oc1ccc(Nc2nc(Nc3ccc4nn(C)cc4c3)ncc2F)cc1` [R935298, 5-Fluoro-N4-(4-isopropoxyphenyl)-N2-(2-methyl-indazoline-5-yl)-2,4-pyrimidinediamine] gave a pIC50 of 6.60.
